Experimental data reported in patent US10752640B2, “Compounds active towards bromodomains” (NUEVOLUTION A/S, priority 2014, dated 2020).

Target: BRD4 protein (Homo sapiens, UniProt O60885)
Assay: FRET assay, half maximal inhibitory concentration (IC50)
Type: binding
Conditions: BRD4 protein 50 nM, Biotin-H4KAc4 peptide 12.5 nM; List of Classification
Experimental: The compounds were biologically evaluated by determining the half maximal inhibitory concentration (IC50) by FRET assay. The IC50 is a measure of the effectiveness of a substance in inhibiting a specific biological or biochemical function.
For IC50 determinations, dose-response curves were generated, using a top concentration of 50 μM compound in 12.5% DMSO, followed by 10-fold dilutions in 12.5% DMSO. The composition of the reaction buffer was 50 mM HEPES, pH 7.5; 100 mM NaCl, 0.05% CHAPS.
The reaction was run in a final volume of 25 μl. The BRD4 protein (16.5 μl) was added to wells of 384w white Optiplates (Perkin Elmer) (50 nM final concentration) and 1 μl of compound dilution of DMSO control. Incubation time was 30 minutes at room temperature. In the next step, 2.5 μl Biotin-H4KAc4 peptide (Millipore 13-379) was added to the wells (final concentration was 12.5 nM), and the plates were incubated for 30 minutes at room temperature. Detection was performed by addition of 5 μl of a mix of mAb GST-XL665 (Cisbio 61GSTXLB) (10 nM final concentration) and Streptavidin Cryptate (Cisbio 610SAKLB) (2.4 nM final conc.) in reaction buffer with 0.4M KF and 0.05% BSA). The plates were incubated for one hour prior to reading on an Envision reader (Perkin Elmer)
Data was analyzed using GraphPad Prism, and IC50 data was obtained using non-linear regression curve fit using log(inhibitor) vs response (variable slope). All compounds were considered active although classified (according to the half maximal inhibitory concentration (IC50) by FRET assay) as follows: […]

Row | Compound | IC50
1 | Cc1cc(O)nc2ccc(NC(=O)c3cc(S(=O)(=O)N(C)C)ccc3N3CCC(O)C3)cc12 (centres unmarked) [Compound-17, 5-(dimethylsulfamoyl)-N-(2-hydroxy-4-methyl-6-quinolyl)-2-(3-hydroxypyrrolidin-1-yl)benzamide] | < 200 nM
2 | Cc1cc(O)nc2ccc(NC(=O)c3cc(S(=O)(=O)N(C)C)ccc3NCCN(C)C)cc12 [Compound-18, 2-(2-dimethylaminoethylamino)-5-(dimethylsulfamoyl)-N-(2-hydroxy-4-methyl-6-quinolyl)benzamide] | > 10000 nM
3 | Cc1cc(O)nc2ccc(NC(=O)c3cc(S(=O)(=O)N(C)C)ccc3NCCO)cc12 [Compound-19, 5-(dimethylsulfamoyl)-2-(2-hydroxyethylamino)-N-(2-hydroxy-4-methyl-6-quinolyl)benzamide] | > 10000 nM
4 | Cc1cc(O)nc2ccc(NC(=O)c3cc(S(=O)(=O)N(C)C)ccc3N3CC(N(C)C)C3)cc12 [Compound-20, 2-[3-(dimethylamino)azetidin-1-yl]-5-(dimethylsulfamoyl)-N-(2-hydroxy-4-methyl-6-quinolyl)benzamide] | 200 to 500 nM
5 | Cc1cc(O)nc2ccc(N(C)C(=O)c3cc(S(=O)(=O)N(C)C)ccc3N3CCN(C)CC3)cc12 [Compound-21, 5-(N, N-dimethylsulfamoyl)-N-(2-hydroxy-4-methylquinolin-6-yl)-N-methyl-2-(4-methylpiperazin-1-yl) benzamide] | > 10000 nM
6 | Cc1cc(O)nc2ccc(N(C)C(=O)c3cc(S(=O)(=O)N4CCOCC4)ccc3N3CCCC3)cc12 [Compound-22, N-(2-hydroxy-4-methylquinolin-6-yl)-N-methyl-5-(morpholinosulfonyl)-2-(pyrrolidin-1-yl) benzamide] | > 10000 nM
7 | Cc1cc(O)nc2ccc(NC(=O)c3cc([N+](=O)[O-])cnc3N3CCCC3)cc12 [Compound-23, N-(2-hydroxy-4-methyl-6-quinolyl)-5-nitro-2-pyrrolidin-1-yl-pyridine-3-carboxamide] | 1000 to 10000 nM
8 | Cc1cc(O)nc2ccc(NC(=O)c3cc(N)cnc3N3CCCC3)cc12 [Compound-24, 5-amino-N-(2-hydroxy-4-methyl-6-quinolyl)-2-pyrrolidin-1-yl-pyridine-3-carboxamide] | < 200 nM
9 | Cc1cc(O)nc2ccc(NC(=O)c3cc(NCC(N)=O)cnc3N3CCCC3)cc12 [Compound-25, 5-[(2-amino-2-oxo-ethyl)amino]-N-(2-hydroxy-4-methyl-6-quinolyl)-2-pyrrolidin-1-yl-pyridine-3-carboxamide] | 200 to 500 nM
10 | COCC1CCCN1c1ccc(CN2CCOCC2)cc1C(=O)Nc1ccc2nc(O)cc(C)c2c1 (centres unmarked) [Compound-26, N-(2-hydroxy-4-methylquinolin-6-yl)-2-(2-(methoxymethyl)pyrrolidin-1-yl)-5-(morpholinomethyl) benzamide] | < 200 nM
11 | Cc1cc(O)nc2ccc(NC(=O)c3cc(CN4CCOCC4)ccc3N3CCCC3c3cc[nH]n3)cc12 (centres unmarked) [Compound-27, 2-(2-(1H-pyrazol-3-yl)pyrrolidin-1-yl)-N-(2-hydroxy-4-methylquinolin-6-yl)-5-(morpholinomethyl) benzamide] | 1000 to 10000 nM
12 | O=C(Nc1ccc2nc(O)cc(C(F)(F)F)c2c1)c1cc(CN2CCOCC2)ccc1N1CCCC1 [Compound-28, N-(2-hydroxy-4-(trifluoromethyl)quinolin-6-yl)-5-(morpholinomethyl)-2-(pyrrolidin-1-yl) benzamide] | 500 to 1000 nM
13 | Cc1cc2nc(O)cc(C)c2cc1NC(=O)c1cc(CN2CCOCC2)ccc1N1CCCC1 [Compound-29, N-(2-hydroxy-4,7-dimethylquinolin-6-yl)-5-(morpholinomethyl)-2-(pyrrolidin-1-yl)benzamide] | < 200 nM
14 | Cc1cc(O)nc2ccc(NC(=O)c3cc(CN4CCOCC4)ccc3N3CCCC3CO)cc12 (centres unmarked) [Compound-30, N-(2-hydroxy-4-methylquinolin-6-yl)-2-(2-(hydroxymethyl)pyrrolidin-1-yl)-5-(morpholinomethyl) benzamide] | < 200 nM
